Test results from patent US20170319534A1, “EUTECTIC ANESTHETIC TOPICAL COMPOSITIONS” (Humco Holding Group, Inc., priority 2016, published 2017).

How the values were obtained:
[1] = cited from earlier work
[2] = tested on: normal human 3D model of epidermal tissue
Excerpt: The remaining components shown in Example 1 above were reduced accordingly, such as by 30.5%. […] Standard Ointment includes 95% white petrolatum and 5% white wax. Permeation was measuring using Franz type diffusion cells and a normal human 3D model of epidermal tissue.

[3] = 3-month/40° C. stability of topical anesthetics; format: physicochemical; conditions: for content as percent (in parentheses), 30 DAYS / content, 30 DAYS / content as percent (in parentheses), 60 DAYS / content, 60 DAYS / content as percent (in parentheses), 90 DAYS / content, 90 DAYS: 40° C.; for content as percent (in parentheses), INITIAL / content, INITIAL: 3-month/40° C. stability; for EXPIRY DATING: tentative expiry dating from 3-month/40° C. stability data
Protocol: The tables below show expiration dates for various topical anesthetics, including 3-month/40° C. stability data. Full-term controlled room temperature stability data are used to support the tentative expiry dating.

SMILES | time to peak effect (ranking) ([1]; applied to mucous membranes) | Percutaneous Absorption Testing, 12 Hours [2] | Percutaneous Absorption Testing, 24 Hours [2] | Percutaneous Absorption Testing, 36 Hours [2] | Percutaneous Absorption Testing, 48 Hours [2] | content as percent (in parentheses), 30 DAYS [3] | content, 30 DAYS [3] | content as percent (in parentheses), 60 DAYS [3] | content, 60 DAYS [3] | content as percent (in parentheses), 90 DAYS [3] | content, 90 DAYS [3] | content as percent (in parentheses), INITIAL [3] | content, INITIAL [3] | EXPIRY DATING [3] | duration of action after topical application [1]
CCOC(=O)c1ccc(N)cc1 [Benzocaine] | fastest | 100% | 100% | 100% | 100% | (102.5%) | 20.5% W/W | (102.0%) | 20.4% W/W | (98.0%) | 19.6% W/W | (99.0%) | 19.8% W/W | ~1.2 YEARS | 
CCCCOc1cc(C(=O)NCCN(CC)CC)c2ccccc2n1 [Dibucaine] |  |  |  |  |  |  |  |  |  |  |  |  |  |  | 3 to 4 h
CCN(CC)CC(=O)Nc1c(C)cccc1C [Lidocaine] |  |  |  |  |  | (103.0%) | 10.3% W/W | (101.0%) | 10.1% W/W | (104.0%) | 10.4% W/W | (100.0%) | 10.0% W/W | ~2.0 YEARS | 
CCCCNc1ccc(C(=O)OCCN(C)C)cc1 [Tetracaine] |  | 2% | 2% | 3% | 3% | (102.5%) | 4.1% W/W | (100.0%) | 4.0% W/W | (100.0%) | 4.0% W/W | (95.0%) | 3.8% W/W | ~2.0 YEARS | up to 2 hours
